# From the NIST ThermoML archive (doi:10.1021/je9002948)
# Numbers after ± are expanded uncertainties.
# Legend:
# [1] = molar heat capacity at constant pressure; wn = mass fraction of the nth substance listed; conditions: 101 kPa, Liquid, Small sample (50 mg) DSC
# [2] = molar heat capacity at constant pressure; conditions: 101.33 kPa, Liquid, Small sample (50 mg) DSC
smiles,measurement,setting,value
NCC(=O)[O-].[Na+] [sodium glycinate] + O,molar heat capacity at constant pressure,"[1]; 298.15 K, w1 = 0.01",75.2 ± 1.5 J/K/mol
same,molar heat capacity at constant pressure,"[1]; 298.15 K, w1 = 0.05",76.7 ± 1.5 J/K/mol
same,molar heat capacity at constant pressure,"[1]; 298.15 K, w1 = 0.1",77.39 ± 1.5 J/K/mol
same,molar heat capacity at constant pressure,"[1]; 298.15 K, w1 = 0.15",78.81 ± 1.6 J/K/mol
same,molar heat capacity at constant pressure,"[1]; 298.15 K, w1 = 0.2",78.23 ± 1.6 J/K/mol
same,molar heat capacity at constant pressure,"[1]; 298.15 K, w1 = 0.3",80.84 ± 1.6 J/K/mol
same,molar heat capacity at constant pressure,"[1]; 303.15 K, w1 = 0.01",75.21 ± 1.5 J/K/mol
same,molar heat capacity at constant pressure,"[1]; 303.15 K, w1 = 0.05",76.72 ± 1.5 J/K/mol
same,molar heat capacity at constant pressure,"[1]; 303.15 K, w1 = 0.1",77.41 ± 1.5 J/K/mol
same,molar heat capacity at constant pressure,"[1]; 303.15 K, w1 = 0.15",78.85 ± 1.6 J/K/mol
same,molar heat capacity at constant pressure,"[1]; 303.15 K, w1 = 0.2",78.79 ± 1.6 J/K/mol
same,molar heat capacity at constant pressure,"[1]; 303.15 K, w1 = 0.3",81.46 ± 1.6 J/K/mol
same,molar heat capacity at constant pressure,"[1]; 308.15 K, w1 = 0.01",75.25 ± 1.5 J/K/mol
same,molar heat capacity at constant pressure,"[1]; 308.15 K, w1 = 0.05",76.77 ± 1.5 J/K/mol
same,molar heat capacity at constant pressure,"[1]; 308.15 K, w1 = 0.1",77.47 ± 1.5 J/K/mol
same,molar heat capacity at constant pressure,"[1]; 308.15 K, w1 = 0.15",78.91 ± 1.6 J/K/mol
same,molar heat capacity at constant pressure,"[1]; 308.15 K, w1 = 0.2",79.45 ± 1.6 J/K/mol
same,molar heat capacity at constant pressure,"[1]; 308.15 K, w1 = 0.3",82.1 ± 1.6 J/K/mol
same,molar heat capacity at constant pressure,"[1]; 313.15 K, w1 = 0.01",75.32 ± 1.5 J/K/mol
same,molar heat capacity at constant pressure,"[1]; 313.15 K, w1 = 0.05",76.85 ± 1.5 J/K/mol
same,molar heat capacity at constant pressure,"[1]; 313.15 K, w1 = 0.1",77.53 ± 1.5 J/K/mol
same,molar heat capacity at constant pressure,"[1]; 313.15 K, w1 = 0.15",78.99 ± 1.6 J/K/mol
same,molar heat capacity at constant pressure,"[1]; 313.15 K, w1 = 0.2",80.12 ± 1.6 J/K/mol
same,molar heat capacity at constant pressure,"[1]; 313.15 K, w1 = 0.3",82.75 ± 1.6 J/K/mol
same,molar heat capacity at constant pressure,"[1]; 318.15 K, w1 = 0.01",75.4 ± 1.5 J/K/mol
same,molar heat capacity at constant pressure,"[1]; 318.15 K, w1 = 0.05",76.92 ± 1.5 J/K/mol
same,molar heat capacity at constant pressure,"[1]; 318.15 K, w1 = 0.1",77.59 ± 1.5 J/K/mol
same,molar heat capacity at constant pressure,"[1]; 318.15 K, w1 = 0.15",79.07 ± 1.6 J/K/mol
same,molar heat capacity at constant pressure,"[1]; 318.15 K, w1 = 0.2",80.77 ± 1.6 J/K/mol
same,molar heat capacity at constant pressure,"[1]; 318.15 K, w1 = 0.3",83.44 ± 1.7 J/K/mol
same,molar heat capacity at constant pressure,"[1]; 323.15 K, w1 = 0.01",75.41 ± 1.5 J/K/mol
same,molar heat capacity at constant pressure,"[1]; 323.15 K, w1 = 0.05",77.05 ± 1.5 J/K/mol
same,molar heat capacity at constant pressure,"[1]; 323.15 K, w1 = 0.1",77.67 ± 1.5 J/K/mol
same,molar heat capacity at constant pressure,"[1]; 323.15 K, w1 = 0.15",79.2 ± 1.6 J/K/mol
same,molar heat capacity at constant pressure,"[1]; 323.15 K, w1 = 0.2",81.48 ± 1.6 J/K/mol
same,molar heat capacity at constant pressure,"[1]; 323.15 K, w1 = 0.3",84.11 ± 1.7 J/K/mol
O [water],molar heat capacity at constant pressure,[2]; 303.15 K,75.29 ± 1.5 J/K/mol
same,molar heat capacity at constant pressure,[2]; 308.15 K,75.36 ± 1.5 J/K/mol
same,molar heat capacity at constant pressure,[2]; 313.15 K,75.38 ± 1.5 J/K/mol
same,molar heat capacity at constant pressure,[2]; 318.15 K,75.39 ± 1.5 J/K/mol
same,molar heat capacity at constant pressure,[2]; 323.15 K,75.39 ± 1.5 J/K/mol
same,molar heat capacity at constant pressure,[2]; 328.15 K,75.39 ± 1.5 J/K/mol
same,molar heat capacity at constant pressure,[2]; 333.15 K,75.41 ± 1.5 J/K/mol
same,molar heat capacity at constant pressure,[2]; 338.15 K,75.41 ± 1.5 J/K/mol
same,molar heat capacity at constant pressure,[2]; 343.15 K,75.43 ± 1.5 J/K/mol
same,molar heat capacity at constant pressure,[2]; 348.15 K,75.45 ± 1.5 J/K/mol
same,molar heat capacity at constant pressure,[2]; 353.15 K,75.48 ± 1.5 J/K/mol
